As usually defined, the IC50 is the midpoint of a concentration-inhibition curve.

Data on 20 compounds can be found in patent US10323028B2, “1,3,4-thiadiazole compounds and their use in treating cancer” (AstraZeneca AB, priority 2015, dated 2019).

The subject of the first assay is NCI-H1703 cells. Briefly: GLS Cell Proliferation Assay (NCI-H1703 cell proliferation). It is filed as cell-based. Conditions: Homo sapiens, NCI-H1703, 120 h, NCI-H1703 cells, 5 days; read-out: Assay c) Prolif Mean IC50. An excerpt: The following assays were used to measure the effects of the compounds described herein: a) GLS Enzyme Potency Assay; b) GLS Cell Potency Assay; c) GLS Cell Proliferation Assay. During the description of the assays, generally: • i. The following abbreviations have been used: CO2=Carbon dioxide; DMEM=Dulbecco's Modified Eagle Medium; DMSO=Dimethyl sulphoxide; EDTA=Ethylenediaminetetraacetic acid; EGTA=Ethylene glycol tetraacetic acid; FCS=Foetal calf serum; h=Hour(s); NBS=Non-binding surface; SDS=Sodium dodecyl sulphate; TRIS=Tris(Hydroxymethyl)aminomethane. • ii. IC50 values were calculated using a smart fitting model in Genedata.
Assay c): GLS Cell Proliferation Assay
The ability of compounds to inhibit cell growth was measured using a 384 well plate NCI-H1703 cell proliferation assay. NCI-H1703 cells were grown in phenol red free RPMI1640, 10% FCS and 2 mM glutamine and seeded at a density of 750 cells per well in 40 μl of growth medium into clear-bottom 384 well assay plates (Corning product code 3712) and incubated for 24 h at 37° C., 5% CO2. […] DMSO concentration was maintained at 0.3% by back filling with DMSO solution. Plates were incubated for 5 days at 37° C., 5% CO2, Sytox Green and Saponin added to final concentration of 2 μM and 0.25% respectively and incubated for 6 h prior to analysis. […] IC50 values were calculated by curve fitting to max inhibition of day zero growth using GeneData software analysis.
In the case of `COc1cc([C@H](OC)C(=O)Nc2nnc(N[C@@H]3CCN(c4cccnn4)C3)s2)cc(N2CC(F)C2)c1` (single isomer, unassigned) [10(b)], the IC50 was determined as 43.4 nM.

Regarding `CO[C@H](C(=O)Nc1nnc(N[C@@H]2CCN(c3cccnn3)C2)s1)c1ccc(F)c(N2CC(F)C2)c1` (single isomer, unassigned) [Example 8(a)], the IC50 amounted to 57.6 nM.

On to `COc1cc(OC(F)(F)F)cc([C@H](OC)C(=O)Nc2nnc(N[C@@H]3CCN(c4cccnn4)C3)s2)c1` (single isomer, unassigned) [Example 11(a)], for which the IC50 stood at 1.7 nM.

The same assay, now with this note: NCI-H1703 cells, 5 days; read-out: Assay c) Prolif Mean IC50.
With `CO[C@H](C(=O)Nc1nnc(N[C@@H]2CCN(c3cccnn3)C2)s1)c1cccc(N2CC(F)(F)C2)c1` (single isomer, unassigned) [2(b)], the IC50 amounted to 28.6 nM. Same read-out and setting: next, `COC[C@H](C(=O)Nc1nnc(N[C@@H]2CCN(c3cccnn3)C2)s1)c1cccc(OC)c1` (single isomer, unassigned) [5(b)]: 120 nM; `COC1CN(c2cccc([C@H](OC)C(=O)Nc3nnc(N[C@@H]4CCN(c5ccc(F)nn5)C4)s3)c2)C1` (single isomer, unassigned) [9(b)]: 122 nM; `COc1cc(OC(F)(F)F)cc([C@H](OC)C(=O)Nc2nnc(N[C@@H]3CCN(c4cccnn4)C3)s2)c1` (single isomer, unassigned) [11(b)]: 1.04 nM. Still for that read-out and setting: with `COC1CN(c2cccc([C@H](OC)C(=O)Nc3nnc(N[C@@H]4CCN(c5ccc(C)nn5)C4)s3)c2)C1` (single isomer, unassigned) [12(b)] the figure was 524 nM. Turning to `COC1CN(c2cccc([C@H](OC)C(=O)Nc3nnc(N[C@@H]4CCN(c5nccnn5)C4)s3)c2)C1` (single isomer, unassigned) [13(b)], the IC50 came to 497 nM. Consider `CCO[C@H](C(=O)Nc1nnc(N[C@@H]2CCN(c3cccnn3)C2)s1)c1cccc(OC(F)F)c1` (single isomer, unassigned) [17(b)], for which the IC50 amounted to 34.9 nM.

`CCO[C@H](C(=O)Nc1nnc(N[C@@H]2CCN(c3cccnn3)C2)s1)c1cccc(OC(F)(F)F)c1` (single isomer, unassigned) [19(b)]: the IC50 is 7.59 nM. On the same count and under the same terms, next, `CO[C@H](C(=O)Nc1nnc(N[C@@H]2CCN(c3cccnn3)C2)s1)c1ccc(F)c(OC(F)(F)F)c1` (single isomer, unassigned) [20(b)]: 2.65 nM; `CO[C@H](C(=O)Nc1nnc(N[C@@H]2CCN(c3cccnn3)C2)s1)c1cccc(N2CC(F)(F)C2)c1` (single isomer, unassigned) [Example 2(a)]: 2.5 nM. As to `COC[C@H](C(=O)Nc1nnc(N[C@@H]2CCN(c3cccnn3)C2)s1)c1cccc(OC)c1` (single isomer, unassigned) [Example 5(a)], the IC50 amounted to 11.7 nM. The same measure, in the same setting: next, `CCO[C@H](C(=O)Nc1nnc(N[C@@H]2CCN(c3cccnn3)C2)s1)c1cc(OC)cc(OC)c1` (single isomer, unassigned) [Example 6(a)]: 2.2 nM; `COC1CN(c2cccc([C@H](OC)C(=O)Nc3nnc(N[C@@H]4CCN(c5ccc(F)nn5)C4)s3)c2)C1` (single isomer, unassigned) [Example 9(a)]: 4.9 nM.

As for `COC1CN(c2cccc([C@H](OC)C(=O)Nc3nnc(N[C@@H]4CCN(c5ccc(C)nn5)C4)s3)c2)C1` (single isomer, unassigned) [Example 12(a)], the IC50 is 32.9 nM. Same read-out and setting: with `CCO[C@H](C(=O)Nc1nnc(N[C@@H]2CCN(c3cccnn3)C2)s1)c1cccc(OC(F)F)c1` (single isomer, unassigned) [Example 17(a)] the figure was 1.56 nM; with `CCO[C@H](C(=O)Nc1nnc(N[C@@H]2CCN(c3cccnn3)C2)s1)c1cccc(OC(F)(F)F)c1` (single isomer, unassigned) [Example 19(a)], 2.61 nM; with `CO[C@H](C(=O)Nc1nnc(N[C@@H]2CCN(c3cccnn3)C2)s1)c1ccc(F)c(OC(F)(F)F)c1` (single isomer, unassigned) [Example 20(a)], 6.57 nM.
